Active and inactive are the calls of the source. The rule behind the calls is not given here.
Tested on: CCRIS mutagenicity, Ames/micronucleus/aberration tests
Test: CCRIS mutagenicity studies
[1] = Test System: AMES SALMONELLA TYPHIMURIUM, Strain/Indicator: TA1535, Metabolic Activation: NONE, Method: STANDARD PLATE

## CCSCCSP(=O)(OC)OC
Test System: AMES SALMONELLA TYPHIMURIUM, Strain/Indicator: TA97A, Metabolic Activation: NONE, Method: STANDARD PLATE
  mutagenic call: inactive; negative
Test System: AMES SALMONELLA TYPHIMURIUM, Strain/Indicator: TA97A, Metabolic Activation: PLANT, HOMOGENATE, S-14, Method: STANDARD PLATE
  mutagenic call: inactive; negative
Test System: AMES SALMONELLA TYPHIMURIUM, Strain/Indicator: TA97A, Metabolic Activation: S-9, Method: STANDARD PLATE
  mutagenic call: inactive; negative
Test System: AMES SALMONELLA TYPHIMURIUM, Strain/Indicator: TA98, Metabolic Activation: NONE, Method: STANDARD PLATE
  mutagenic call: inactive; negative
Test System: AMES SALMONELLA TYPHIMURIUM, Strain/Indicator: TA98, Metabolic Activation: PLANT, HOMOGENATE, S-14, Method: STANDARD PLATE
  mutagenic call: inactive; negative
Test System: AMES SALMONELLA TYPHIMURIUM, Strain/Indicator: TA98, Metabolic Activation: RAT, LIVER, S-9, Method: STANDARD PLATE
  mutagenic call: inactive; negative
Test System: AMES SALMONELLA TYPHIMURIUM, Strain/Indicator: TA98, Metabolic Activation: S-9, Method: STANDARD PLATE
  mutagenic call: inactive; negative
Test System: AMES SALMONELLA TYPHIMURIUM, Strain/Indicator: TA98, Metabolic Activation: WHEAT SEEDLING, S-14, Method: STANDARD PLATE
  mutagenic call: inactive; negative
Test System: AMES SALMONELLA TYPHIMURIUM, Strain/Indicator: TA100, Metabolic Activation: NONE, Method: STANDARD PLATE
  mutagenic call: inactive; negative
Test System: AMES SALMONELLA TYPHIMURIUM, Strain/Indicator: TA100, Metabolic Activation: PLANT, HOMOGENATE, S-14, Method: STANDARD PLATE
  mutagenic call: inactive; negative
Test System: AMES SALMONELLA TYPHIMURIUM, Strain/Indicator: TA100, Metabolic Activation: S-9, Method: STANDARD PLATE
  mutagenic call: inactive; negative
Test System: AMES SALMONELLA TYPHIMURIUM, Strain/Indicator: TA102, Metabolic Activation: NONE, Method: STANDARD PLATE
  mutagenic call: inactive; negative
Test System: AMES SALMONELLA TYPHIMURIUM, Strain/Indicator: TA102, Metabolic Activation: RAT, LIVER, S-9, Method: STANDARD PLATE
  mutagenic call: inactive; negative
Test System: AMES SALMONELLA TYPHIMURIUM, Strain/Indicator: TA102, Metabolic Activation: WHEAT SEEDLING, S-14, Method: STANDARD PLATE
  mutagenic call: inactive; negative
[1]
  mutagenic call: inactive; negative
Test System: AMES SALMONELLA TYPHIMURIUM, Strain/Indicator: TA1535, Metabolic Activation: PLANT, HOMOGENATE, S-14, Method: STANDARD PLATE
  mutagenic call: inactive; negative
Test System: AMES SALMONELLA TYPHIMURIUM, Strain/Indicator: TA1535, Metabolic Activation: RAT, LIVER, S-9, Method: STANDARD PLATE
  mutagenic call: inactive; negative
Test System: AMES SALMONELLA TYPHIMURIUM, Strain/Indicator: TA1535, Metabolic Activation: S-9, Method: STANDARD PLATE
  mutagenic call: inactive; negative
Test System: AMES SALMONELLA TYPHIMURIUM, Strain/Indicator: TA1535, Metabolic Activation: WHEAT SEEDLING, S-14, Method: STANDARD PLATE
  mutagenic call: inactive; negative

## Cc1cccc2cc3c4c(cccc4c12)-c1ccccc1-3
Test System: AMES SALMONELLA TYPHIMURIUM, Strain/Indicator: TA100, Metabolic Activation: RAT, LIVER, S-9, AROCLOR 1254
  mutagenic call: active; positive

## CN(Cc1ccc(F)cc1)N=O
Test System: AMES SALMONELLA TYPHIMURIUM, Strain/Indicator: TA1535, Metabolic Activation: HAMSTER, LIVER, S-9, AROCLOR 1254, Method: STANDARD PLATE
  mutagenic call: active; positive
[1]
  mutagenic call: inactive; negative

## C=C(CC(=O)OCC)C(=O)OCC
Test System: Chinese hamster ovary cells, Metabolic Activation: None, Method: CHO/HGPRT assay
  mutagenic call: inactive; negative
